From publication PMC13095408, “DBeQ derivative targets vacuolar protein sorting 4 functions in cancer cells and suppresses tumor growth in mice” (The Journal of Pharmacology and Experimental Therapeutics, 2025)

Columns and labels:
[1] = test system: GFP-CHMP4B-expressing U2OS cells; experiment: GFP-CHMP4B accumulation cell-based assay (high-content microscopy); details: for 4-107-induced GFP-CHMP4B accumulation on co-treatment: 100 nM BafA1 or 50 μM CQ with 2 μM 4-107, starved, 2 hours
Procedure: Plates were then scanned using the 20× objective for 1 hour with ≥100 cells/well across 6 fields/well. […] For all other assays, the cells were cultured overnight in black glass-bottom 96-well plates (Cellvis; P96-1.5H-N) then stained, rinsed, and treated with SM containing the indicated compounds (0.1% DMSO or 0.1% DMSO/0.1% ethanol [vehicle] final). Plates were scanned using the 20× NA .70 objective at the indicated intervals with ≥ 300 cells/well across 3 fields/well. […]

VPS4B = target: T1, VPS4B (Homo sapiens, UniProt O75351); experiment: VPS4B ATPase activity, EnzChek Phosphate assay; assay type: biochemical; set-up: His tag (pET28a vector-encoded) (N); made in house; host or cells: Escherichia coli BL21(DE3)
T1 sequence (O75351 1-444): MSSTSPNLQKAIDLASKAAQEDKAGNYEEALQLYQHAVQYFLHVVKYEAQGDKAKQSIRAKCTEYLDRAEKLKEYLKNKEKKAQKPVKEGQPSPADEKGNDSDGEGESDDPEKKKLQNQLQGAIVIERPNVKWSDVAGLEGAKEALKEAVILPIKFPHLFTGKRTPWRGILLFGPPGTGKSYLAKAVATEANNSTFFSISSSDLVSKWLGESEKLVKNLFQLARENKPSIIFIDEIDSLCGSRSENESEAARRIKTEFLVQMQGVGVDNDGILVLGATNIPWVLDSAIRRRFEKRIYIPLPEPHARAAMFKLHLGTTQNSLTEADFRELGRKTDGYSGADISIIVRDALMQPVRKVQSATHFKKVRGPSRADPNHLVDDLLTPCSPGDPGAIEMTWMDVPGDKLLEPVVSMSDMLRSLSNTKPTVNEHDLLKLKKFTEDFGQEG
Procedure: VPS4B and VCP ATPase activities were measured using the EnzChek Phosphate assay for the quantification of released phosphate. Assay buffers were based on literature precedents ([Cupido et al, 2019], [2021]) as follows: VPS4B buffer (20 mM HEPES-KOH, pH 7.4, 25 mM KOAc, 2 mM MgCl2, 5 mM (NH4)2SO4, 0.5 mM CaCl2, 2.5 mM DTT, 0.1 mg/mL BSA, 0.005% v/v Triton X-100), VCP buffer (20 mM HEPES-NaOH, pH 7.4, 20 mM NaCl, 10 mM MgCl2, 5 mM (NH4)2SO4, 0.5 mM CaCl2, 2.5 mM DTT, 0.1 mg/mL BSA, 0.005% v/v Triton X-100). In black clear-bottom 384-well plates, 22.5 μL of 5% DMSO or 40× test compounds diluted in the respective assay buffer was added to each well. ATPases were diluted to 1 μM in the respective buffers containing 2× EnzChek Phosphate assay coupling reagents of 400 μM MESG and 2 U of PNP, then 25 μL was added to each well. Plates were mixed at 1000 rpm for 30 minutes at RT while being protected from light. The reaction was initiated by adding 2.5 μL of 20 mM MgATP or water followed by mixing at 1200 rpm for 30 seconds at RT. Plates were measured at 360 nm using a CLARIOstar plate reader (BMG LABTECH) for 20 minutes at 37 °C. ATPase activity was calculated as the amount of phosphate released over a 5-minute interval under linear initial velocity conditions. The remaining ATPase activity was calculated by normalizing compound-treated activity values to the DMSO control. IC50 was calculated by fitting normalized values to a sigmoidal dose-response curve with Hill slope = −1 using Graph Pad Prism 10.0.
To identify VPS4i, we developed enzyme- and cell-based VPS4 functional assays to serve as VPS4i-screening platforms. For the enzyme-based assay, we used the colorimetric EnzChek Phosphate assay that detects free phosphate with the advantage of continuous measurement of ATP hydrolysis over time. […] Due to the high sequence and structural similarity of AAA-ATPases, we also established a VCP ATPase assay to evaluate hit selectivity. […] For the cell-based assay, our approach was based on how VPS4 inhibition causes the accumulation of ESCRT-III ([Babst et al, 1998]; [Katoh et al, 2003]). We used an N-terminal GFP-tagged CHMP4B reporter system because it is the most abundant ESCRT-III subunit ([Katoh et al, 2004]; [Teis et al, 2008]). Our aim was to test compounds under short-term serum and amino acid starvation to stimulate ESCRT activity for easier detection of inhibitors ([Takahashi et al, 2018], [2019]). […] Overall, we established 2 systems for VPS4i screening, a VPS4B ATPase activity assay and a GFP-CHMP4B accumulation cell-based assay.

[2] = screened at 1 µM, mean ± S.D., Supplemental Table 2
[3] = screened at 5 µM, mean ± S.D., Supplemental Table 2
[4] = screened at 1 μM, starvation media, 1 hour, foci intensity per cell normalized to 4-107, mean ± SD, Table 1
[5] = remaining ATPase activity, screened at 5 μM, mean ± SD, Table 1

| SMILES | GFP-CHMP4B (% 4-107) [1, 2] [% 4-107] | VPS4B ATPase (% DMSO) (VPS4B; [3]) | further results |
| --- | --- | --- | --- |
| COc1ncnc2c1ccn2-c1nc(NCc2ccccc2)c2cccc(OC)c2n1 [Compound 5-51] | 2.51 ± 1.24 | 91.51 ± 3.26 |  |
| COc1cccc2c(NCc3ccccc3)nc(NCc3nc4ccccc4s3)nc12 [Compound 5-105] | 1.30 ± 1.20 | 56.25 ± 2.23 |  |
| COc1ccc2cccc(Nc3nc(NCc4ccccc4)c4cccc(OC)c4n3)c2c1 [Compound 5-119] | 2.49 ± 0.70 | 53.27 ± 1.65 |  |
| COc1cccc2c(NCc3ccc(S(N)(=O)=O)cc3)nc(Cl)nc12 [Compound 5-17] | 2.87 ± 0.27 | 86.08 ± 7.25 |  |
| COc1ncnc2c1ccn2-c1nc(NCCc2cccnc2)c2cccc(OC)c2n1 [Compound 5-65] | 1.69 ± 0.46 | 89.36 ± 2.84 |  |
| COc1cccc2c(NCc3ccccc3)nc(NCc3ccccc3)nc12 [Compound 4] |  |  | GFP-CHMP4B (% 4-107) ([1]; screened at 1 µM, mean ± S.D., Supplemental Table 2, listed as 5-133): 2.92 ± 2.81 % 4-107; GFP-CHMP4B (% 4-107) [1, 4]: 2.92 ± 2.81 % 4-107; VPS4B ATPase (% DMSO) (VPS4B; [5]): 75.23 ± 0.63 % DMSO; VPS4B ATPase (% DMSO) (VPS4B; screened at 5 µM, mean ± S.D., Supplemental Table 2, listed as 5-133): 75.23 ± 0.63 % DMSO |
| COc1cccc2c(NCCc3ccc(S(N)(=O)=O)cc3)nc(-n3ccc4ccc(C(=O)O)cc43)nc12 [Compound 5-43-iv] | 1.27 ± 0.69 | 99.19 ± 4.43 |  |
| COc1ncnc2c1ccn2-c1nc(NCc2ccc(C(F)(F)F)cc2)c2cccc(OC)c2n1 [Compound 5-57] | 2.44 ± 0.81 | 93.98 ± 3.83 |  |
| COc1ccc2nc(NCc3ccccc3)nc(NCc3ccccc3)c2c1 [Compound 7] | 8.92 ± 2.87 | 43.86 ± 1.20 | GFP-CHMP4B (% 4-107) [1, 4]: 8.92 ± 2.87 % 4-107; VPS4B ATPase (% DMSO) (VPS4B; [5]): 43.86 ± 1.20 % DMSO |
| Fc1ccc2nc(NCc3ccccc3)nc(NCc3ccccc3)c2c1 [Compound 5-143] | 11.12 ± 2.40 |  |  |
| COc1cccc2c(NCCc3ccccc3)nc(N[C@@H](C)c3ccccc3)nc12 [Compound 5-83] | 1.83 ± 1.02 | 42.92 ± 3.93 |  |
| COc1cccc2c(NCCc3cccnc3)nc(-n3ccc4cncnc43)nc12 [Compound 5-63] | 5.28 ± 0.27 | 90.35 ± 0.07 |  |
| COC(=O)c1cccc2c1ccn2-c1nc(NCc2ccccc2)c2cccc(OC)c2n1 [Compound 5-135] | 4.63 ± 2.05 | 86.66 ± 2.70 |  |
| COc1cccc2c(NCc3ccccc3)nc(NCc3cccc(OC(F)(F)F)c3)nc12 [Compound 16] |  |  | GFP-CHMP4B (% 4-107) ([1]; screened at 1 µM, mean ± S.D., Supplemental Table 2, listed as 7-07): 7.52 ± 1.95 % 4-107; GFP-CHMP4B (% 4-107) [1, 4]: 7.52 ± 1.95 % 4-107; VPS4B ATPase (% DMSO) (VPS4B; [5]): 41.50 ± 2.98 % DMSO; VPS4B ATPase (% DMSO) (VPS4B; screened at 5 µM, mean ± S.D., Supplemental Table 2, listed as 7-07): 41.50 ± 2.98 % DMSO |
| COc1cccc2c(NCc3ccccc3)nc(Nc3ccc4scnc4c3)nc12 [Compound 5-67] | 1.60 ± 0.33 | 51.60 ± 0.35 |  |
| COc1cccc2c(NCc3ccccc3)nc(Cl)nc12 [Compound 3] |  | 71.88 ± 3.41 | GFP-CHMP4B (% 4-107) ([1]; screened at 1 µM, mean ± S.D., Supplemental Table 2, listed as 5-125): 3.86 ± 2.41 % 4-107; GFP-CHMP4B (% 4-107) [1, 4]: 3.86 ± 2.41 % 4-107; VPS4B ATPase (% DMSO) (VPS4B; [5]): 71.88 ± 3.41 % DMSO |
| COc1cccc2c(NCCc3cccc(S(N)(=O)=O)c3)nc(NCCc3ccc(S(N)(=O)=O)cc3)nc12 [Compound 5-15-iv] | 3.22 ± 0.67 | 77.37 ± 4.37 |  |

| SMILES | GFP-CHMP4B (% 4-107) [1, 2] [% 4-107] | VPS4B ATPase (% DMSO) (VPS4B; [3]) | further results |
| --- | --- | --- | --- |
| COc1cccc2c(NCc3ccccc3)nc(N[C@@H](C)c3ccccc3)nc12 [Compound 5-81] | 7.65 ± 7.10 | 43.91 ± 0.05 |  |
| Nc1cccc2c(NCc3ccccc3)nc(NCc3cccc(F)c3)nc12 [Compound 7-77] | 26.24 ± 20.18 |  |  |
| COC(=O)c1ccc2c(ccn2-c2nc(NCc3ccccc3)c3cccc(OC)c3n2)c1 [Compound 5-41-iii] | 2.82 ± 1.33 | 80.70 ± 2.02 |  |
| COc1cccc2c(Nc3ccccc3)nc(NCc3ccccc3)nc12 [Compound 7-75] | 11.57 ± 12.42 |  |  |
| COc1ccc2c(Nc3ccccc3)nc(Cl)nc2c1 [Compound 7-41] | 17.93 ± 2.08 |  |  |
| COC(=O)c1ccc2c(ccn2-c2nc(NCc3ccc(S(N)(=O)=O)cc3)c3cccc(OC)c3n2)c1 [Compound 5-47] | 1.41 ± 0.61 |  |  |
| COC(=O)c1cccc(CNc2nc(NCc3cccc(C(=O)OC)c3)c3cccc(OC)c3n2)c1 [Compound 4-131-iii] | 11.94 ± 9.74 | 34.70 ± 0.70 |  |
| COc1cccc2c(NCc3ccccc3)nc(NCc3cccc(C(=O)O)c3)nc12 [Compound 5-35-iv] | 10.92 ± 9.21 | 88.20 ± 5.24 |  |
| COc1cccc2c(NCc3ccccc3)nc(NC(c3ccccc3)c3ccccc3)nc12 [Compound 7-23] | 23.20 ± 6.42 | 37.77 ± 2.37 |  |
| COC(=O)c1ccc2ccn(-c3nc(NCCc4ccc(S(N)(=O)=O)cc4)c4cccc(OC)c4n3)c2c1 [Compound 5-43-iii] | 3.01 ± 1.98 | 94.98 ± 0.53 |  |
| Nc1cccc2c(NCc3ccccc3)nc(NCc3ccc(F)cc3)nc12 [Compound 7-69] | 20.04 ± 6.12 |  |  |
| COc1cccc2c(NCc3ccccc3)nc(Cl)nc12 [Compound 4-95] | 1.76 ± 0.74 |  |  |
| COc1ccc(CNc2nc(NCc3ccccc3)c3cccc(N)c3n2)cc1 [Compound 7-65] | 17.36 ± 5.75 |  |  |
| COc1cccc2nc(NCc3ccccc3)nc(NCc3ccccc3)c12 [Compound 7-27] | 19.55 ± 2.22 |  |  |
| CO/C1=C\C(C)=C\[C@@H](C)[C@@H](O)[C@@H](C)C/C(C)=C/C=C/[C@H](OC)[C@@H]([C@@H](C)[C@@H](O)[C@H](C)[C@@]2(O)C[C@@H](O)[C@H](C)[C@@H](C(C)C)O2)OC1=O [BafA1, bafilomycin A1, reference compound] |  |  | 4-107-induced GFP-CHMP4B accumulation on co-treatment [1]: blocked |
| CCN(CC)CCCC(C)Nc1ccnc2cc(Cl)ccc12 (stereo not shown) [CQ, chloroquine diphosphate, reference compound] |  |  | 4-107-induced GFP-CHMP4B accumulation on co-treatment [1]: blocked |
| COc1ccc2c(Nc3ccccc3)nc(NCc3ccccc3)nc2c1 [Compound 7-45] | 24.94 ± 5.94 |  |  |
